Earlier results, collected in patent publication US20220160665A1, “COMPOSITION IN MICRO-ENCAPSULATED FORM, BASED ON N-BUTYRICACID OR DERIVATIVES THEREOF, FOR TREATING CROHNS DISEASE OR ULCERATIVE RECTAL COLITIS” (SILA S.R.L., priority 2019, published 2022).

Details: solid granular form, white-coloured powder, commercially available

- temperature up to which stable: up to 250 °C
Structure (SMILES): CCCC(=O)[O-].[Na+] [sodium salt of the n-butyric acid]
